This is an account of results in patent US11414425B2 (priority 2018, dated 2022).

Bounds are passed on as bounds.

For one series, the target named is T1, GABAAα5 receptor (Rattus norvegicus, UniProt P18508+P19969).
T1 construct: occupancy in the hippocampus (a region of high GABAAα5 receptor density); from tissue; host or cells: rat brain in vivo: hippocampus versus cerebellum
Nature of the series: in vivo. The series is classed as in vivo, Long Evans rats. To be noted: i.v.; for effect on binding of Ro 15-4513 in hippocampus / effect on binding/levels of Ro 15-4513 in cerebellum: 0.01-10 mg/kg. The source says: Food and water were available ad libitum.

The next series concerns MAM-treated rats. To be noted: cited from earlier work.
Series [1] concerns aged-impaired (AI) rats. Nature of the series: Morris water maze behavioral task. The series is classed as in vivo, rat. Conditions: 100 μg ICV. The source says:
Another cognitive test that may be used to assess the effects of a test compound on the cognitive impairment of a CNS disorder model animal is the Morris water maze. A water maze is a pool surrounded with a novel set of patterns relative to the maze. […] The subject is trained to locate a submerged escape platform hidden underneath the surface of the pool. During the training trial, a subject is released in the maze (pool) from random starting positions around the perimeter of the pool. The starting position varies from trial to trial. […] After a delay period following the last training trial, a retention test in the absence of the escape platform is given to assess spatial memory. The subject's level of preference for the location of the (now absent) escape platform, as measured by, e.g., the time spent in that location or the number of crossings of that location made by the mouse, indicates better spatial memory, i.e., treatment of cognitive impairment. The preference for the location of the escape platform under different treatment conditions, can then be compared for efficacy of the test compound in treating cognitive impairment associated with CNS disorders.
The effects of 6,6 dimethyl-3-(3-hydroxypropyl)thio-1-(thiazol-2-yl)-6,7-dihydro-2-benzothiophen-4(5H)-one on the in vivo spatial memory retention of aged-impaired (AI) rats were assessed in a Morris water maze behavioral task. A water maze is a pool surrounded with a novel set of patterns relative to the maze.
Cognitively impaired aged rats were implanted unilaterally with a cannula into the lateral ventricle. Stereotaxic coordinates were 1.0 mm posterior to bregma, 1.5 mm lateral to midline, and 3.5 mm ventral to the skull surface. After about a week of recovery, the rats were pre-trained in a water maze for 2 days (6 trials per day) to locate a submerged escape platform hidden underneath the surface of the pool, in which the escape platform location varied from day to day. No intracerebroventricular (ICV) infusion was given during pre-training.
After pre-training, rats received ICV infusion of either 100 μg 6,6 dimethyl-3-(3-hydroxypropyl)thio-1-(thiazol-2-yl)-6,7-dihydro-2-benzothiophen-4(5H)-one (n=6) in 5 μl DMSO or vehicle DMSO (n=5) 40 min prior to water maze training and testing. Training consisted of 8 trials per day for 2 days where the hidden escape platform remained in the same location. Rats were given 60 seconds to locate the platform with a 60 seconds inter-trial interval. The rats were given a probe test (120 seconds) 24 hr. after the end of training where the escape platform was removed. During the training, there were 4 blocks, where each block had 4 training trials.
During a test trial 24 hr. after training, the escape platform was removed. […]

Series [2] has as its system aged-impaired (AI) rats. Description: Radial Arm Maze (RAM) behavioral task, spatial memory retention. Conditions: four-hour delay RAM. Format: in vivo, rat. The source says: A Radial Arm Maze (RAM) behavioral task is one example of a cognitive test, specifically testing spacial memory (Chappell et al. Neuropharmacology 37: 481-487, 1998). The RAM apparatus consists of, e.g., eight equidistantly spaced arms. A maze arm projects from each facet of a center platform. A food well is located at the distal end of each arm. Food is used as a reward. Blocks can be positioned to prevent entry to any arm. Numerous extra maze cues surrounding the apparatus may also be provided. After habituation and training phases, spatial memory of the subjects may be tested in the RAM under control or test compound-treated conditions. As a part of the test, subjects are pretreated before trials with a vehicle control or one of a range of dosages of the test compound. At the beginning of each trial, a subset of the arms of the eight-arm maze is blocked. Subjects are allowed to obtain food on the unblocked arms to which access is permitted during this initial “information phase” of the trial. Subjects are then removed from the maze for a delay period, e.g., a 60 second delay, a 15 minute delay, a one-hour delay, a two-hour delay, a six hour delay, a 24 hour delay, or longer) between the information phase and the subsequent “retention test,” during which the barriers on the maze are removed, thus allowing access to all eight arms. […] The identity and configuration of the blocked arms vary across trials. The number of “errors” the subjects make during the retention test phase is tracked. An error occurs in the trial if the subjects entered an arm from which food had already been retrieved in the pre-delay component of the trial, or if it re-visits an arm in the post-delay session that had already been visited. A fewer number of errors would indicate better spatial memory. The number of errors made by the test subject, under various test compound treatment regimes, can then be compared for efficacy of the test compound in treating cognitive impairment associated with CNS disorders.
The effects of methyl 3,5-diphenylpyridazine-4-carboxylate on the in vivo spatial memory retention of aged-impaired (AI) rats were assessed in a Radial Arm Maze (RAM) behavioral task using vehicle control and four different dosage levels of methyl 3,5-diphenylpyridazine-4-carboxylate (0.1 mg/kg, 0.3 mg/kg, 1 mg/kg and 3 mg/kg, ip). RAM behavioral tasks were performed on eight AI rats. All five treatment conditions (vehicle and four dosage levels) were tested on all eight rats.
The RAM apparatus used consisted of eight equidistantly-spaced arms. An elevated maze arm (7 cm width×75 cm length) projected from each facet of an octagonal center platform (30 cm diameter, 51.5 cm height). Clear side walls on the arms were 10 cm high and were angled at 65° to form a trough. […]

A further series has as its target α5β3γ2 GABAA receptors (Homo sapiens, UniProt P18507+P31644). Nature of the series: [3H]Ro15-1788 binding, membranes of Ltk cells stably expressing α5β3γ2 GABAA receptors. Conditions: ranges; inhibition of [3H]Ro15-1788 binding.
Another series concerns the target T2, GABAA receptors (α5β2γ2) (Homo sapiens, UniProt P18507+P31644).
T2 construct: expressed in transfected cells
Description: Positive allosteric modulator activity: potentiation of EC20 GABA current in oocytes. Format: cell-based. Conditions: read-out: GABA α5 Functional Data (potentiation of EC20 GABA); @ 100 nM; ranges. An outline of the steps:
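Oocytes were injected with 1 ng cDNA (α5:β2:γ2 1:1:10 by weight) and recorded on day 2 (day 3 with 20% less cDNA) by two-electrode clamp (3M KCl electrodes, 0.5-3 megaohms) under MBS superfusion at 3 mL/min. Potentiation (%) is Itest divided by IGABA. Each oocyte received one concentration only.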

Where [3] appears, read: probe test 24 hr. after training.

Chain of α5β3γ2 GABAA receptors (P31644 32-462): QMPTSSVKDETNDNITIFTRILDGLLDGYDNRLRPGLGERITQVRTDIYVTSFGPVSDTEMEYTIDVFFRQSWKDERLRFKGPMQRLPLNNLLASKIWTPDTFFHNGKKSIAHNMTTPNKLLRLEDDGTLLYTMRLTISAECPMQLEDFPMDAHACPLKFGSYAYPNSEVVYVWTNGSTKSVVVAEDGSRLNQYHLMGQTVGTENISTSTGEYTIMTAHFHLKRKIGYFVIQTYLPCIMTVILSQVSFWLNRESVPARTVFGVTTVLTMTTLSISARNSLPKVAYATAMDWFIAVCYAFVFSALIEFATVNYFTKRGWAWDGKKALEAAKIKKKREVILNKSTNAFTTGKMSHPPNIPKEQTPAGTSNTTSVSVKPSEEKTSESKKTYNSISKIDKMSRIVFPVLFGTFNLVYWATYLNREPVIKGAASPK
Chain of α5β3γ2 GABAA receptors (P28472 26-473 partner): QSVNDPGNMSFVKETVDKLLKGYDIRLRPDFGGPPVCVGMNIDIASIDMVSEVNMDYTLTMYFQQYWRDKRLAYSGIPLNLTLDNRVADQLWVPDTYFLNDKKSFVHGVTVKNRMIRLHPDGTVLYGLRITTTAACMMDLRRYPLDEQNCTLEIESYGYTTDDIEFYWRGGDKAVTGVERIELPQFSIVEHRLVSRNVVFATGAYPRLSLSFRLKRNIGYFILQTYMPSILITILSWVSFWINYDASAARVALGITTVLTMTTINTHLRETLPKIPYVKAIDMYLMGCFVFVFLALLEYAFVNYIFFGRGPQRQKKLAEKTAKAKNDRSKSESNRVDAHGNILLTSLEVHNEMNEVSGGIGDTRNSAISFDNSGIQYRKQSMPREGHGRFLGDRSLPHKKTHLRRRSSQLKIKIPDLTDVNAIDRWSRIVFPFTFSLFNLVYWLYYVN
Chain of α5β3γ2 GABAA receptors (P18507 40-475): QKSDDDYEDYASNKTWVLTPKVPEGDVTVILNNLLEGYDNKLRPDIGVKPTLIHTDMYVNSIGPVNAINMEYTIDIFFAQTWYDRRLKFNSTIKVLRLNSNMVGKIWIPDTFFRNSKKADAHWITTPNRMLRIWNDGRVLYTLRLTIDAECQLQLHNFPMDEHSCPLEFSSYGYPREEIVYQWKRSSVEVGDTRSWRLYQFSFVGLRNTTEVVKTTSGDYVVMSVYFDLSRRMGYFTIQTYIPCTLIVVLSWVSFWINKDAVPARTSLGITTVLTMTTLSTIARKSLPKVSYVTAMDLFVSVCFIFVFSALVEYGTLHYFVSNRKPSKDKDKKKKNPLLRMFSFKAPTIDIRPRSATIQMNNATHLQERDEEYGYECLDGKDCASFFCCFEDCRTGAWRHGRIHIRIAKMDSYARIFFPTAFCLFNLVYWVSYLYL
T2 sequence (P31644 32-462): as the sequence (P31644 32-462) above
T2 sequence (P47870 25-512, further chain): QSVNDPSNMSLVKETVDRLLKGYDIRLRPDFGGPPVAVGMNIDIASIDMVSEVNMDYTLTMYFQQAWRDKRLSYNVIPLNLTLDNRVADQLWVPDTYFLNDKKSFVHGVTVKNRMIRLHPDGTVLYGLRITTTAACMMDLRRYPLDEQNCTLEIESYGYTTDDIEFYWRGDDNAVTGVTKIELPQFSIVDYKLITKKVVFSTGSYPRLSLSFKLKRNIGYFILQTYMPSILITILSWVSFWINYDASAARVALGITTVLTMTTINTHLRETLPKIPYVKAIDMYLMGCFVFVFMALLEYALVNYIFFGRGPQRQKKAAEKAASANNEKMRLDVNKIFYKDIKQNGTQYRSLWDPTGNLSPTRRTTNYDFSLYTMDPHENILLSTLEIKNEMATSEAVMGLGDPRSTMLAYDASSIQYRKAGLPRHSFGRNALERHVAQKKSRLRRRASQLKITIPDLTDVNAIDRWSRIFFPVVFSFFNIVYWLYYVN
T2 sequence (P18507 40-475): as the sequence (P18507 40-475) above
T1 sequence (P19969 32-464): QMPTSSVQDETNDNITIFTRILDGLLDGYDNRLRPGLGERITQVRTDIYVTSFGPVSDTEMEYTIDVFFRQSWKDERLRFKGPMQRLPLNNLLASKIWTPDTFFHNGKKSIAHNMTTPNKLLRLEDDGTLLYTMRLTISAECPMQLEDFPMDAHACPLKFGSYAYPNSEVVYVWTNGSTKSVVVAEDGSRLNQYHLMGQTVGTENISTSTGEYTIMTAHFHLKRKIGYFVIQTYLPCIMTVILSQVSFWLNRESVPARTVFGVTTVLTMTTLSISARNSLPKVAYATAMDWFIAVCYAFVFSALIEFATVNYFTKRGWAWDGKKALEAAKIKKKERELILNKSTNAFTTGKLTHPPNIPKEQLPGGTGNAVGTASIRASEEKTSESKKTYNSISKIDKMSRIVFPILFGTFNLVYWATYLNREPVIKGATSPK
T1 sequence (P18508 39-466): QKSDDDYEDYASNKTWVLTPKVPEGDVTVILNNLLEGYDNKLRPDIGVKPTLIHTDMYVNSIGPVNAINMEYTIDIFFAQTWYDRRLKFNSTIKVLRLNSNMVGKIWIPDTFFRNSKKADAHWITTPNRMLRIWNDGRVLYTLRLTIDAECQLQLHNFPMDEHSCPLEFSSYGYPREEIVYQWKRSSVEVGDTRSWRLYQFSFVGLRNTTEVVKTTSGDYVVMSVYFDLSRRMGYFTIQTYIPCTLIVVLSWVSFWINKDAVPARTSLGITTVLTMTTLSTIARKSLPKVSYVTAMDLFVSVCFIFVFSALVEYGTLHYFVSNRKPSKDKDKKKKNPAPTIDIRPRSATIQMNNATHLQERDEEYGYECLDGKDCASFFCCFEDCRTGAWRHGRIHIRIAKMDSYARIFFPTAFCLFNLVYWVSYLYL

As to Ro 15-4513, on GABAAα5 receptor (tracer 1 μg/kg, after vehicle), the “levels of Ro 15-4513 in cerebellum” value turned out to be 0.36 ± 0.02 ng/g, the “levels of Ro 15-4513 in hippocampus” value turned out to be 1.93 ± 0.05 ng/g and the “levels of Ro 15-4513 in hippocampus compared with cerebellum” value is > 5 fold.

Regarding `C#Cc1ccc2c(c1)C(c1ccccc1F)=N[C@H](C)c1c(C(=O)OCC)ncn1-2` [SH-053-2′F—R—CH3], the “number of spontaneously active DA neurons in the ventral tegmental area (VTA)” value with MAM-treated rats (MAM rats, systemic and infused into ventral HPC) was “reduces the number of spontaneously active DA neurons in the ventral tegmental area (VTA) of MAM rats to levels observed in saline-treated rats”. The “locomotor response to amphetamine” value in the series on MAM-treated rats (MAM-treated rats) is listed as “reduced”. Besides, the “cortical-evoked responses of HPC neurons” value with MAM-treated rats (saline-treated and MAM-treated animals) is given as “diminished cortical-evoked responses”.

`CC1(C)CC(=O)c2c(SCCCO)sc(-c3nccs3)c2C1` [6,6 dimethyl-3-(3-hydroxypropyl)thio-1-(thiazol-2-yl)-6,7-dihydro-2-benzothiophen-4(5H)-one]: the results for the “time to find the escape platform” value in the series on aged-impaired (AI) rats [1] (block 1 of training) and with aged-impaired (AI) rats [1] (block 4 of training) were “about 24 seconds” and “about 9.6 seconds”, respectively. In addition, the “number of crossings of target annulus vs opposite annulus” value with aged-impaired (AI) rats [1] (setting [3]) was “crossed the “target annulus” more often”. Also, in the series with aged-impaired (AI) rats [1] (setting [3]), the “time in target annulus vs opposite annulus” value is reported as “spent significantly more time in the target annulus”.

For `CCOC(=O)c1ncn2c1Cn1c(C)nnc1-c1cc(OC)ccc1-2` [ethyl 3-methoxy-7-methyl-9H-benzo[f]imidazo[1,5-a][1,2,4]tri], the “memory performance relative to vehicle control treatment” value in the series on aged-impaired (AI) rats [2] (3 mg/kg, t(7)=4.13, p=0.004, or t(7)=3.08, p=0.018) is “significantly improved memory performance”. The “memory performance relative to vehicle control treatment” value in the series on aged-impaired (AI) rats [2] (10 mg/kg, t(7)=2.82, p=0.026) is “significantly improved memory performance”. Further, at GABAAα5 receptor, the “effect on binding of Ro 15-4513 in hippocampus” value is “reduced Ro 15-4513 binding in hippocampus” and the “effect on binding/levels of Ro 15-4513 in cerebellum” value is given as “without affecting cerebellum levels of Ro 15-4513”. For the same molecule, the “GABAA α5 receptor occupancy” value on GABAAα5 receptor (10 mg/kg) is on record as > 90%.

Turning to `CCOC(=O)c1ncn2c1Cn1c(C)nnc1-c1cc(OC)ccc1-2` [Ethyl 3-methoxy-7-methyl-9H-benzo[f]imidazo[1,5-a][1,2,4]tri], on GABAAα5 receptor, the “effect on binding of Ro 15-4513 in hippocampus” value was “blocked the binding of Ro154513 in the hippocampus” and the “effect on binding/levels of Ro 15-4513 in cerebellum” value is listed as “did not affect binding of Ro15413 in the cerebellum”.

For orientation: Ki means the dissociation constant of the complex between target and ligand, obtained from inhibition or displacement. Take `COCc1nnc2n1Cc1c(C#Cc3ccn(C)n3)ncn1-c1ccc(Cl)cc1-2` [Compound 683]: the Ki at α5β3γ2 GABAA receptors is < 100 nM. At GABAA receptors (α5β2γ2), the activation at 0.1 µM is > 50%.

On to `COCc1nnc2n1Cc1c(C#Cc3ccc(OC)nn3)ncn1-c1ccc(OC)cc1-2` [Compound 712], for which, at α5β3γ2 GABAA receptors, the inhibition constant (Ki) was < 100 nM. The activation at 0.1 µM on GABAA receptors (α5β2γ2) is > 50%.

Take `COCc1nnc2n1Cc1c(C#Cc3ccc(OC)nn3)ncn1-c1ccc(Cl)cc1-2` [Compound 707]: the inhibition constant (Ki) at α5β3γ2 GABAA receptors was < 100 nM. The activation at 0.1 µM at GABAA receptors (α5β2γ2) was > 50%.

Turning to `COCc1nnc2n1Cc1c(C#Cc3cccnc3OC)ncn1-c1ccc(OC)cc1-2` [Compound 615], the Ki at α5β3γ2 GABAA receptors was < 100 nM. Further, the activation at 0.1 µM at GABAA receptors (α5β2γ2) fell in the range of 20 to 50%.

In the case of `COCc1nnc2n1Cc1c(C#Cc3ccnn3C)ncn1-c1ccc(Cl)cc1-2` [Compound 682], on α5β3γ2 GABAA receptors, the Ki was < 100 nM. Besides, the activation at 0.1 µM on GABAA receptors (α5β2γ2) was > 50%.

In the case of `CC(C)c1nc(-c2ncn3c2Cc2cnnn2-c2cc(Cl)ccc2-3)no1` [Compound 538], the Ki at α5β3γ2 GABAA receptors is < 100 nM. For the same molecule, the activation at 0.1 µM on GABAA receptors (α5β2γ2) fell in the range of 20 to 50%.

For the molecule `Fc1ccc(C#Cc2ncn3c2Cc2cnnn2-c2cc(C(F)(F)F)ccc2-3)cc1` [Compound 501], on α5β3γ2 GABAA receptors, the Ki was < 100 nM. The activation at 0.1 µM at GABAA receptors (α5β2γ2) was in the range of 20 to 50%.

Take `Fc1ccc(C#Cc2ncn3c2Cc2cnnn2-c2cc(OC(F)F)ccc2-3)cc1` [Compound 500]: the inhibitory constant (Ki) at α5β3γ2 GABAA receptors was < 100 nM. The activation at 0.1 µM at GABAA receptors (α5β2γ2) was 5 to 20%.

On to `Cc1noc(-c2ncn3c2Cc2c(Cc4cccc(F)c4)nnn2-c2cc(OC(F)F)ccc2-3)n1` [Compound 491], for which the Ki on α5β3γ2 GABAA receptors was < 100 nM. The activation at 0.1 µM at GABAA receptors (α5β2γ2) was 20 to 50%.

Turning to `COCc1nnc2n1Cc1c(C#Cc3ccc4[nH]ccc4c3)ncn1-c1ccc(OC)cc1-2` [Compound 715], the Ki on α5β3γ2 GABAA receptors is < 100 nM. Also, the activation at 0.1 µM on GABAA receptors (α5β2γ2) fell in the range of 20 to 50%.

`C[C@]1(c2ccccc2)COC(c2ncn3c2Cc2cnnn2-c2cc(Cl)ccc2-3)=N1` [Compound 623]: the Ki at α5β3γ2 GABAA receptors was < 100 nM. Also, the activation at 0.1 µM at GABAA receptors (α5β2γ2) is 5 to 20%.

On to `COc1cccc(C2CN=C(c3ncn4c3Cc3cnnn3-c3cc(Cl)ccc3-4)O2)n1` (stereo not shown) [Compound 631], for which the inhibition constant Ki at α5β3γ2 GABAA receptors was < 100 nM. For the same molecule, the activation at 0.1 µM on GABAA receptors (α5β2γ2) lay within 5 to 20%.

As for `FC(F)(F)c1ccc2c(c1)-n1nncc1Cc1c(-c3ncco3)ncn1-2` [Compound 475], at α5β3γ2 GABAA receptors, the inhibition constant Ki was < 100 nM. The activation at 0.1 µM on GABAA receptors (α5β2γ2) is 5 to 20%.
